Measurements reported in ChEMBL document CHEMBL1130651, “Synthesis of novel C7-aryl substituted pyrrolo[2,1-c][1,4]benzodiazepines (PBDs) via pro-N10-Troc protection and Suzuki coupling” (Bioorg Med Chem Lett, 1998).

Assays:
CH1 = assay: Compound was evaluated for cytotoxicity against CH1 cell line; type: functional, cell-based; details: Homo sapiens
A2780 = assay: Compound was evaluated for cytotoxicity against A2780 cell line; type: functional, cell-based; details: Homo sapiens

Row | SMILES | IC50 (CH1) [nM] | IC50 (A2780) [nM]
1 | COc1ccc(-c2ccc3c(c2)C(=O)N2CCC[C@H]2C=N3)cc1 | 1350 | 560
2 | O=C1c2cc(-c3ccccc3)ccc2N=C[C@@H]2CCCN12 | 1500 | 1150
3 | O=C1c2cc(-c3cccc([N+](=O)[O-])c3)ccc2N=C[C@@H]2CCCN12 | 22500 | 34500
4 | COc1ccccc1-c1ccc2c(c1)C(=O)N1CCC[C@H]1C=N2 | 4800 | 1180
5 | Cc1ccc(-c2ccc3c(c2)C(=O)N2CCC[C@H]2C=N3)cc1 | 1500 | 580
6 | O=C1c2cc(-c3ccc(F)cc3)ccc2N=C[C@@H]2CCCN12 | 4700 | 660
